Where two headings read alike, the source gives them in different places.

Assay [1] addresses T1, LdtMt2 (Mycobacterium tuberculosis, UniProt I6Y9J2). Nature of the assay: Fluorescence-based (fluorogenic probe 1) inhibition assay for LdtMt2. Type of assay: biochemical.
Assay [2] addresses T1, LdtMt2. Put plainly: High-throughput (RapidFire) protein mass spectrometry of covalent adduct formation with LdtMt2. Type of assay: biochemical. The note with it: for time to complete reaction (adduct formation) with LdtMt2: LdtMt2 3 µM with two equivalents (6 µM) of inhibitor, 50 mM Tris pH 7.5; for stability of covalent complex with LdtMt2: after 24 hours, RapidFire MS. The protocol: Inhibition assays were performed in flat-bottomed 384-well μ-clear plates (Greiner Bio-One) with a final volume of 25 μL, and using 50 mM HEPES, pH 7.5 containing 0.01% (v/v) Triton X-100 as the assay buffer. LdtMt2 (100 nM) was treated with a range of inhibitor concentrations, and the mixture was incubated for 0, 10 or 60 minutes. Following this pre-incubation, fluorogenic probe 1 (25 μM)2 was added, and the mixture was incubated for a further 30 minutes. The fluorescence signal was then measured using a BMG Labtech PHERAstar FS with λex = 480 nm and λem = 520 nm using the bottom optic. All reactions were carried out in quadruplicate, and controls without inhibitor and without LdtMt2 were included. Inhibition results were normalised using the no inhibitor and no enzyme controls. Dose-response analysis was performed using Prism (GraphPad) with the log(inhibitor) vs normalized response -- variable slope model. Data points were plotted as mean average with the standard deviation as the […]
Mass spectrometric analyses were performed using an Agilent 6550 system equipped with a RapidFire sampler. Samples (100 µL) were prepared in 50 mM Tris, pH 7.5, consisting of 3 µM LdtMt2 and either 6 µM or 30 µM of the relevant inhibitor, as […]
Purified LdtMt2 Δ1-55 (approx. 1 mM; His-tag cleaved) in 50 mM Tris, pH 8.0, 100 mM NaCl was used for crystallography. Crystallisation trials were set up using the sitting drop vapour diffusion method with the JCSG+ broad screen (Molecular Dimensions). A structure of LdtMt2 Δ1-55 (PDB 6RLG) was solved using a crystal […]
Figure S3. MS analysis of the apparent covalent adducts formed with LdtMt2 and the cysteine-reactive inhibitors. […]
conditions used for mass spectrometry are described in the Experimental Details […]
(1 picture or pasted object on this page, not shown here)

Where [3] appears, read: IC50 (μM, mean ± SD) 10 min, 10 min pre-incubation prior to addition of fluorogenic probe 1, LdtMt2 100 nM, probe 1 25 μM.
Setting [4] is: IC50 (μM, mean ± SD) 60 min, LdtMt2 100 nM, probe 1 25 μM.
Setting [5] is: without pre-incubation prior to addition of fluorogenic probe 1, LdtMt2 100 nM, probe 1 25 μM, read-out: IC50 (μM, mean ± SD) 0 min.

T1 sequence (I6Y9J2 56-408): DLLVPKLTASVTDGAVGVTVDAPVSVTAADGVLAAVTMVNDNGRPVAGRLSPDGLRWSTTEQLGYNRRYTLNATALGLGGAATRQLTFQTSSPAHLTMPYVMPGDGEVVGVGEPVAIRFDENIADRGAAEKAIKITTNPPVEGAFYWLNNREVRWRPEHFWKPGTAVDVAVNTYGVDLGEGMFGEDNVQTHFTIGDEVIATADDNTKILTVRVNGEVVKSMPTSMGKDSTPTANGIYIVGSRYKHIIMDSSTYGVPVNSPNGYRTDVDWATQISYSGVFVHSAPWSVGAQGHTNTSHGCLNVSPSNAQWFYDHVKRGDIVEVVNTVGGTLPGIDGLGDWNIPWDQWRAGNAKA

`CCC(C)SSc1ncc[nH]1` (stereo not drawn) [Compound 10, PX-12]: the IC50 – broadly, the concentration needed to halve the response being measured – at LdtMt2 [1] (setting [3]) stood at 9.56 ± 0.25 µM; against LdtMt2 [1] (setting [4]), 2.48 ± 0.1 µM; on LdtMt2 [1] (setting [5]), 27.2 ± 0.5 µM.
With `CN(C)C(=S)SSC(=S)N(C)C` [Compound 8, Thiram], the 50% inhibitory concentration (IC50) against LdtMt2 [1] (setting [3]) is 2.93 ± 0.11 µM; at LdtMt2 [1] (setting [4]) it was 0.78 ± 0.029 µM; on LdtMt2 [1] (setting [5]), 7.01 ± 0.29 µM. In addition, the “time to complete reaction (adduct formation) with LdtMt2” value (shortened to “time to complete reaction”) at LdtMt2 [2] is reported as not above 45 min. Besides, the “stability of covalent complex with LdtMt2” value at LdtMt2 [2] is listed as “a small amount of unbound protein was observed”.
Take `O=c1c2ccccc2[se]n1-c1ccccc1` [Compound 4, Ebselen]: the IC50 worked out at 0.159 ± 0.077 µM at LdtMt2 [1] (setting [3]), 0.143 ± 0.014 µM on LdtMt2 [1] (setting [4]) and 0.36 ± 0.02 µM on LdtMt2 [1] (setting [5]). Also, the “time to complete reaction” value at LdtMt2 [2] was not above 1 min.
For `c1ccc(SSc2ccccn2)nc1` [Compound 9, Aldrithiol], in that order: 5.35 ± 0.21 µM, 1.61 ± 0.03 µM, 22.1 ± 0.7 µM and not above 10 min.
In the case of `O=C1C=CC(=O)N1` [Compound 3, Maleimide], the IC50 at LdtMt2 [1] (IC50 (μM, mean ± SD) 0 min) worked out at 158 ± 9 µM; on LdtMt2 [1] (IC50 (μM, mean ± SD) 10 min), 48.3 ± 3.6 µM; against LdtMt2 [1] (IC50 (μM, mean ± SD) 60 min), 18.6 ± 0.7 µM. Moreover, the “time to complete reaction” value on LdtMt2 [2] was more than 82 min.
Take `Cl[Se]c1ccccc1` [Compound 6, PhSeCl]: the results for the half-inhibitory concentration (IC50) at LdtMt2 [1] (setting [3]), at LdtMt2 [1] (setting [4]) and on LdtMt2 [1] (setting [5]) were 24.6 ± 0.9 µM, 20 ± 1.2 µM and 62.8 ± 2.2 µM, respectively.
As to `C[C@@H](O)[C@H]1C(=O)N2C(C(=O)O)=C([C@H]3CCCO3)S[C@H]12` [Compound 11, Faropenem], at LdtMt2 [2], the “stability of covalent complex with LdtMt2” value was “a small amount of unbound protein was observed”.
As for `O=[Se](O)c1ccccc1` [Compound 7, PhSe(O)OH], the IC50 against LdtMt2 [1] (setting [3]) turned out to be 136 ± 17 µM; against LdtMt2 [1] (setting [4]) it was 93.2 ± 9.3 µM; on LdtMt2 [1] (setting [5]), 309 ± 7 µM.
For the compound `NC(=O)CI` [Compound 2, Iodoacetamide], the IC50 at LdtMt2 [1] (read-out: IC50 (μM, mean ± SD) 10 min, 10 min pre-incubation prior to addition of fluorogenic probe 1, LdtMt2 100 nM, probe 1 25 μM) was found to be 32.5 ± 1.4 µM; on LdtMt2 [1] (read-out: IC50 (μM, mean ± SD) 60 min, LdtMt2 100 nM, probe 1 25 μM), 10.1 ± 0.7 µM; at LdtMt2 [1] (setting [5]) it was 129 ± 14 µM.
Regarding `Br[Se]c1ccccc1` [Compound 5, PhSeBr], the 50% inhibitory concentration (IC50) against LdtMt2 [1] (setting [3]) stood at 5.05 ± 0.35 µM; against LdtMt2 [1] (setting [4]), 2.02 ± 0.61 µM; on LdtMt2 [1] (setting [5]) it was 11.8 ± 1.3 µM.

For the origin of these results see paper PMC6984337, “Targeting the Mycobacterium tuberculosis transpeptidase LdtMt2 with cysteine-reactive inhibitors including ebselen” (Chemical Communications (Cambridge, England), 2019).
